# In US11859252B2, “Diagnostic and therapeutic methods for cancer” (Genentech, Inc., priority 2017, dated 2024):
# Entries after “also recorded” stand apart in the source; their conditions may differ.
# Columns and labels:
# pMEK, pERK, pRSK, pAKT = experiment: Immunoblot of pathway markers after compound treatment; format: cell-based; settings: for induction of pMEK by PI3K inhibition: A549 and HCT116 cells, FIGS. 7B-7D
# Procedure: Cells lysed in lysis buffer (0.5% NP40, 20 mM Tris, pH 7.5, 137 mM NaCl, 10% glycerol, 1 mM EDTA) plus protease inhibitor mixture-complete mini (Roche Applied Science, 11836170001) and phosphatase inhibitor mix (Thermo, 78426). Lysates were centrifuged at 15,000 rpm for 10 minutes and the protein concentration determined using BCA (Thermo, 23227). Equal amounts of protein were subjected to SDS-PAGE NuPAGE 4-12% Bis-Tris Gel (Novex, WG-1403) and transferred to nitrocellulose membrane (BioRad, 170-4159). After blocking in blocking buffer (Li-Cor, 927-40000), membranes were incubated with the indicated primary antibodies and analyzed either by the addition of secondary antibodies IRDye 680LT Goat anti-Mouse IgG (H+L) (Li-Cor, 926-68050) or IRDye 800CW goat anti-Rabbit IgG (H+L) (Li-Cor, 926-32211). The membranes were visualized on the LiCor Odyssey CLx Scanner.
# A549 cells [1] = experiment: 12×12 matrix titration, Bliss excess, […]-GLO; format: cell-based; settings: 3 days
# Procedure: For combination synergy studies, cells were plated in 384-well plates (Corning) and treated with varying concentrations of compound, either alone or in combination for 72 hours. Cell viability was determined using CellTiter-Glo Luminescent Cell Viability Assay (Promega, G7573). Synergistic effects were determined using the Bliss independence analysis methods (Greco et al. Pharmacol. Rev. 47: 331-385, 1995; Chou and Talalay. Adv. Enzyme Regul. 22:27-55, 1984; Chou. Cancer Res. 70: 440-446, 2010; Bliss. Ann. Appl. Biol. 25: 31, 1939).
# A549 cells [2] = experiment: Clonogenic (colony growth) assay; format: cell-based; settings: 8 days; crystal violet; FIG. 2F, 5E
# Procedure: Cells were plated in duplicate in 6-well plates at 10,000 cells/well, allowed to attach overnight and treated for 8 days with the indicated compounds. Media with appropriate compounds was replenished every 72 hours. At 8 days cells were rinsed once with PBS, fixed and stained with crystal violet solution (Sigma Aldrich, HT90132) for 20 minutes and washed with water.
# [3] = Plasma and tumor drug concentrations; format: in vivo, mice; settings: combination with GDC-0973, FIG. 3D
# [4] = test system: HCT116 colon xenograft tumor; experiment: HCT116 colon xenograft tumor model
# Procedure: The formulations were mixed well by vortexing before dosing. Test articles were stored in a refrigerator set to maintain a temperature range of 4° C.-7° C.
# Only animals that appeared to be healthy and that were free of obvious abnormalities were used for each study. Tumor volumes were determined using digital calipers (Fred V. Fowler Company, Inc.) using the formula (L×W×W)/2. […] Mice were weighed twice a week using a standard scale.
# [5] = test system: NRAS mutant melanoma cell line; experiment: Viability of NRAS mutant melanoma versus BRAF-V600E and wild-type lines; format: cell-based; settings: FIG. 8A
# Procedure: Compounds were screened in nine-point dose response using a three-fold dilution. Cells were seeded into 384-well plates 24 hours prior to compound addition. Cells were then incubated with compound for 72 hours or 120 hours before assaying viability (CellTiter-Glo, Promega). Assays were performed in biological triplicate. […] Mean viability is equivalent to the area under the log-dose/viability curve divided by the total number of tested doses.
# [6] = test system: MAPK pathway signaling (pERK, pRSK, DUSP6, SPRY4); experiment: Tumor pharmacodynamics in tumor-bearing mice; format: in vivo; settings: combination of LY3009120 and GDC-0973 vs either alone, 4 days of treatment, FIG. 3C
# Procedure: GEM model tumor samples were collected and stored in RNALater (Qiagen, Valencia, CA). Total RNA was extracted with RNeasy Plus Mini kit (Qiagen) following manufacturer's instructions. RNA quantity was determined using Nanodrop (Thermo Scientific, Waltham, MA).
# Transcriptional readouts were assessed using either a Fluidigm instrument or standard RT-PCR assays according to manufacturer's recommendations. RNA (100 ng) was subjected to cDNA synthesis/pre-amplification reactions using the Applied Biosystems High Capacity cDNA RT Kit and TaqMan PreAmp Master Mix as per the manufacturer's protocol (Life Technologies, Carlsbad, CA). […]
# To prepare protein lysates, cells were washed once with ice-cold PBS and lysed in 1× Cell Extraction Buffer (Invitrogen) supplemented with protease inhibitor tablet (Roche) and phosphatase inhibitors (Sigma). Protein concentration was determined using BCA Protein Assay (Pierce). […] Antigen-antibody interaction was detected with HRP-conjugated goat anti-rabbit and goat anti-mouse antibodies (Jackson ImmunoResearch) using enhanced chemiluminescence detection reagents (Pierce) or with IRDye 800 conjugated, affinity purified anti rabbit IgG (LI-COR Biosciences) and Alexa Fluor 680 goat anti mouse IgG (Life Technologies) secondary antibodies using the Odyssey Infrared Imaging System (LI-COR Biosciences).
# [7] = test system: A549 KRAS-mutant lung cancer cell line; experiment: Tool compound combination screen with AZ-628; format: cell-based; settings: 1 μM AZ-628 versus DMSO, FIG. 1D-1E
# Procedure: A compound library comprising 480 compounds arrayed in 9-point dose response was screened in the absence or presence of a fixed dose of either AZ-628 or DMSO in A549 cells. A549 cells were seeded into 384 well plates, and compound was added 24 h later. Cell viability was determined 120 h post-compound addition (CellTiter Glo). Curves were fitted, and both IC50 and mean viability metrics were calculated. The IC50 is the dose at which inhibition is 50% relative to untreated wells. The mean viability is the average of the fitted viabilities at each tested dose. Mean viability is equivalent to the area under the log-dose/viability curve divided by the total number of tested doses. All data were fitted using Genedata Screener (GDS) software. The combination metric was the difference in mean viability between the AZ-628 treated arm and the DMSO treated arm for each compound.
# pMEK = experiment: Phospho (Ser 217/221)/Total MEK1/2 assay; format: cell-based; settings: KRAS mutant; ratio of P-MEK and total MEK; FIG. 1B
# Procedure: Cells were plated at a density of 20,000 cells per 96-well and treated with compound the following day for two hours in a final concentration of 0.2% DMSO. After two hours, the cells were lysed according to manufacturer's protocol (Meso Scale Discovery, K15129D), and the lysates were added to BSA-blocked plates for overnight capture at 4° C. The following day the assay plates were washed three times with TBST and the detection antibody was added for one hour at RT. The plates were then washed three times with TBST. 1× read buffer was added to the plate and immediately read on the Meso Scale Discovery SECTOR Imager 6000. Curves were generated using Graph Pad Prism 6.
# BRAF-V600E cell lines = experiment: 3-day […]-GLO viability assay of RAF inhibitors, BRAF-V600E lines; format: cell-based; settings: single agent; BRAF-V600E mutant cell lines; FIG. 1A
# Procedure: (§1) Seeding densities were optimized for each cell line to obtain 70-80% confluence after 4 days. The cells were plated into 384-well plates (Griener, 781091) and then treated with compound the following day in a final DMSO concentration of 0.1%. The relative numbers of viable cells were measured by luminescence using CellTiter-Glo (Promega, G7573). Viability curves were generated using a four-parameter fit in GraphPad Prism 6.
# KRAS mutant cell lines = experiment: 3-day […]-GLO viability assay of RAF inhibitors, KRAS mutant lines; format: cell-based; settings: single agent, FIG. 1A
# Procedure: as §1
# RAS-GTP = experiment: Ras activity assay (RAF1-RBD pull-down); format: cell-based; settings: A549, 24 hours, RAF1-RBD pull-down, FIG. 7E
# Procedure: Levels of active GTP-loaded Ras were determined by GST-Raf-RBD pull-down assay (Thermo Scientific, 16117). In brief, GST-Raf-RBD fusion proteins were incubated with glutathione beads, and cells were collected in lysis buffer as recommended by the manufacturer. The cell lysates were incubated with the GST-Raf-RBD immobilized beads for 1.5 hours at 4° C. Bound proteins were eluted with SDS sample buffer and analyzed by Western blot.
compound,measurement,setting,value
CNS(=O)(=O)Nc1nccc(Cc2c(C)c3ccc(Oc4ncccn4)cc3oc2=O)c1F [CH-6766],induction of pMEK,"pMEK, pERK, pRSK, pAKT; A549 cells, 24 hours at 1 μM, FIG. 1F",do not induce pMEK
same,synergy with AZ-628 (Bliss excess),"A549 cells [1]; full-dose Bliss matrix, FIG. 1G",less synergistic with AZ-628
CNc1ncc2cc(-c3cc(NC(=O)NCCC(C)(C)C)c(F)cc3C)c(C)nc2n1 [LY3009120],synergy with cobimetinib in colony formation,A549 cells [2],marked synergy
same,drug exposure in combination,[3],not due to increased drug exposure
same,"tumor growth, combination with cobimetinib","[4]; HCT116, LY3009120+GDC-0973, FIG. 3A",capable of effectively regressing the tumors
same,"tumor growth, single agent","[4]; HCT116, LY-3009120 25 mg/kg IP QD, cobimetinib 5 mg/kg PO QD, FIG. 3A",modestly inhibited tumor growth
same,tolerability / body weight,"[4]; HCT116 xenograft mice, combination with cobimetinib, FIG. 3B","well tolerated in the mice, resulting in little or minimal changes in body weight post-treatment"
same,"effect on mean viability, NRAS mutant vs BRAF-V600E",[5],approximately equivalent effects on mean viability
same,suppression of DUSP6 and SPRY4 in tumor,[6],"deeper suppression of downstream MAPK target genes, DUSP6 and SPRY4"
same,suppression of pERK and pRSK in tumor,[6]; all time points,better suppression of pERK and pRSK
O=C(NOC[C@H](O)CO)c1ccc(F)c(F)c1Nc1ccc(I)cc1F [PD901],hit ranking / mean viability difference with AZ-628,[7],scored highest among the compounds tested
O=C(c1c(F)ccc(NS(=O)(=O)N2CC[C@@H](F)C2)c1F)c1c[nH]c2ncc(-c3cnc(C4CC4)nc3)cc12 [PLX-8394],paradoxical activation of downstream pMEK,pMEK,do not induce paradoxical activation
same,activity in cell viability assay,BRAF-V600E cell lines,showed activity in BRAF-V600E mutant cell lines
same,synergy with cobimetinib (Bliss excess),A549 cells [1]; FIG. 2A,did not synergize with MEK inhibitors in KRAS mutant cell lines
same,activity in cell viability assay,KRAS mutant cell lines,but not in KRAS mutant cell lines
CC(C)(C)c1nc(-c2cccc(NS(=O)(=O)c3c(F)cccc3F)c2F)c(-c2ccnc(N)n2)s1 [dabrafenib],paradoxical activation of downstream pMEK,pMEK,led to paradoxical activation of downstream pMEK in KRAS mutant tumors
same,activity in cell viability assay,BRAF-V600E cell lines,showed activity in BRAF-V600E mutant cell lines
same,activity in cell viability assay,KRAS mutant cell lines,but not in KRAS mutant cell lines
CS(=O)(=O)N1CCN(Cc2cc3nc(-c4cccc5[nH]ncc45)nc(N4CCOCC4)c3s2)CC1 [pictilisib],hit ranking / mean viability difference with AZ-628,[7],notable hits; also recorded: among the top hits of the screen
same,pERK and pRSK levels,"pMEK, pERK, pRSK, pAKT; A549, 24 hours, dose-dependent, FIG. 7D",increased pERK and pRSK levels
same,pAKT inhibition,"pMEK, pERK, pRSK, pAKT; A549, pictilisib alone, 24 hours, FIG. 7G",robustly inhibit pAKT
same,induction of pMEK by PI3K inhibition,"pMEK, pERK, pRSK, pAKT; 24 hours",doing so at lower concentrations; also recorded: dose-dependent induction of pMEK
same,RAS-GTP levels,RAS-GTP,dose-dependent induction of RAS-GTP levels
same,RAS-GTP levels,RAS-GTP; listed as Pictilisib,increase levels of RAS-GTP (albeit at higher concentrations) similar to that induced by cobimetinib
O=C(NC[C@H](O)CO)c1ccncc1Nc1ccc(I)cc1F [pimasertib],hit ranking / mean viability difference with AZ-628,[7],scored highest among the compounds tested
COc1cc(F)c(F)c(Nc2ccc(I)cc2F)c1NS(=O)(=O)C1(C[C@H](O)CO)CC1 [refametinib],hit ranking / mean viability difference with AZ-628,[7],scored highest among the compounds tested
Cc1nc(-c2cn3c(n2)-c2ccc(-c4cnn(C(C)(C)C(N)=O)c4)cc2OCC3)n(C(C)C)n1 [taselisib],hit ranking / mean viability difference with AZ-628,[7],notable hits
same,induction of pMEK by PI3K inhibition,"pMEK, pERK, pRSK, pAKT; 24 hours",doing so at lower concentrations
